Experiments:
[1] = test system: liver; experiment: In vivo analysis in CD-1 mice: luciferase mRNA-LNP, luminescence in the liver; conditions: LNP 50/10/38.5/1.5 mol % ionizable lipid/DSPC/chol/PEG-DMG, N/P 6, mRNA encoding luciferase 1 mg/kg intravenous, 4 hours post-injection (FIG. 2A)
Experimental: (§1) Lipids 1 or 2 described herein, DSPC, cholesterol, and PEG-DMG, were dissolved in ethanol at the appropriate ratios to a final concentration of 10 mM total lipid. Nucleic acid (siRNA or mRNA) was dissolved in an appropriate buffer such as 25 mM sodium acetate pH 4 or sodium citrate pH 4 to a concentration necessary to achieve the appropriate amine-to-phosphate ratios. The aqueous and organic solutions were mixed using a rapid-mixing device as described in Kulkarni et al., 2018, ACS Nano, 12:4787 and Kulkarni et al., 2017, Nanoscale, 36:133347 (each incorporated herein by reference) at a flow rate ratio of 3:1 (v/v; respectively) and a total flow rate of 20 mL/min. The resultant mixture was dialyzed directly against 1000-fold volume of PBS pH 7.4. All formulations were concentrated using an Amicon™ centrifugal filter unit and analysed using the methods described below. LNP-mRNA encoding firefly luciferase were injected intravenously (tail-vein) into 6-8 week old CD-1 mice. Four hours following injection, the animals were euthanized and the liver and spleen and isolated. Tissue was homogenized in Glo Lysis buffer and a luciferase assay performed using the Steady Glo Luciferase assay kit (as per manufacturers recommendations). LNP formulations containing 50/10/38.5/1.5 mol % of ionizable lipids/DSPC/chol/PEG-DMG with a nitrogen-to-phosphorous ratio (N/P) of 6 and mRNA encoding luciferase were tested for in vivo transfection efficiency in the liver and spleen after injection to CD-1 mice. The mRNA dose was 1 mg/kg. Luminescence intensity in the liver and spleen was measured at 4 hours post-injection. The ionizable lipids were 1 and 5-32 (Table 1).

[2] = test system: spleen; experiment: In vivo analysis in CD-1 mice: luciferase mRNA-LNP, luminescence in the spleen; conditions: LNP 50/10/38.5/1.5 mol % ionizable lipid/DSPC/chol/PEG-DMG, N/P 6, mRNA encoding luciferase 1 mg/kg intravenous, 4 hours post-injection (FIG. 2B)
Experimental: as §1

[3] = delivery of siRNA; relative to KC2; cited from earlier work

Row | SMILES | luminescence intensity per mg liver compared with the MC3 benchmark [1] | luminescence intensity per mg spleen compared with the MC3 benchmark [2] | siRNA required, times less than KC2 [3]
1 | CCCCCCCCCC(=O)OC(CCCCCC(CCCCCC(CSCCCCCC)OC(=O)CN(C)C(=O)CCCCC)N(C)CCCCO)CSCCCCCC (centres unmarked) [lipid 30, 14-((N-hexanoyl-N-methylglycyl)oxy)-1,15-bis(hexylthio)-8-((4-hydroxybutyl)(methyl)-amino)pentadecan-2-yl decanoate] | higher | higher | –
2 | CCCCCCCCCC(=O)OC(CCCCCC(CCCCCC(CSCCCCCC)OC(=O)CN(C)C(=O)CCCCC)OC(=O)CCCN(C)C)CSCCCCCC (centres unmarked) [lipid 9, 8-((4-(dimethylamino)butanoyl)oxy)-14-((N-hexanoyl-N-methylglycyl)oxy)-1,15-bis-(hexylthio)pentadecan-2-yl decanoate] | higher | higher | –
3 | CCCCC/C=C\C/C=C\CCCCCCCCC(CCCCCCCC/C=C\C/C=C\CCCCC)OC(=O)CCCN(C)C [MC3, DLin-MC3-DMA] | – | – | about 3 times
4 | CCCCCCCCCC(=O)OC(CCCCCC(CCCCCC(CSCCCCCC)OC(=O)CCCCCCCCC)OC(=O)CCCN(C)C)CSCCCCCC (centres unmarked) [lipid 7, 8-((4-(Dimethylamino)butanoyl)oxy)-1,15-bis(hexylthio)pentadecane-2,14-diyl bis(decanoate)] | higher | higher | –
5 | CCCCCCCCCC(=O)OC(CCCCC(CCCCC(CSCCCCCCC)OC(=O)CCCCCCCCC)N(C)CCCCO)CSCCCCCCC (centres unmarked) [lipid 23, 1,13-bis(Heptylthio)-7-((4-hydroxybutyl)(methyl)amino)tridecane-2,12-diyl bis(decano-ate)] | higher | higher | –
6 | CCCCCCCCCC(=O)OC(CCCCC(CCCCC(CSCCCCC)OC(=O)CCCCCCCCC)N(C)CCCCO)CSCCCCC (centres unmarked) [lipid 22, 7-((4-Hydroxybutyl)(methyl)amino)-1,13-bis(pentylthio)tridecane-2,12-diyl bis(decano-ate)] | higher | higher | –
7 | CCCCCCCCC(=O)OC(CCCCCC(CCCCCC(CSCCCCCCC)OC(=O)CCCCCCCC)N(C)CCCCO)CSCCCCCCC (centres unmarked) [lipid 31, 1,15-bis(Heptylthio)-8-((4-hydroxybutyl)(methyl)amino)pentadecane-2,14-diyl dinonanoate] | higher | higher | –
8 | CCCCCCCCCC(=O)OC(CCCCCC(CCCCCC(CSCCCCC)OC(=O)CCCCCCCCC)N(C)CCCCO)CSCCCCC (centres unmarked) [lipid 26, 8-((4-hydroxybutyl)(methyl)amino)-1,15-bis(pentylthio)pentadecane-2,14-diyl bis-(decanoate)] | higher | higher | –
9 | CCCCCCSCC(CCCCCC(CCCCCC(CSCCCCCC)OC(=O)CCC1CCCCC1)OC(=O)CCCN(C)C)OC(=O)CCC1CCCCC1 (centres unmarked) [lipid 8, 8-((4-(Dimethylamino)butanoyl)oxy)-1,15-bis(hexylthio)pentadecane-2,14-diyl bis(3-cyclohexylpropanoate)] | higher | higher | –
10 | CCCCCCCCCC(=O)OC(CCCCC(CCCCC(CSC1CCCCC1)OC(=O)CCCCCCCCC)OC(=O)CCCN(C)C)CSC1CCCCC1 (centres unmarked) [lipid 6, 1,13-bis(Cyclohexylthio)-7-((4-(dimethylamino)butanoyl)oxy)tridecane-2,12-diyl bis-(decanoate)] | higher | higher | –
11 | CCCCCCCCC(=O)OC(CCCCCC(CCCCCC(CSCCCCC)OC(=O)CCCCCCCC)N(C)CCCCO)CSCCCCC (centres unmarked) [lipid 25, 8-((4-hydroxybutyl)(methyl)amino)-1,15-bis(pentylthio)pentadecane-2,14-diyl dinonano-ate] | higher | higher | –
12 | CCCCCCCCC(=O)OC(CCCCC(CCCCC(CSCCCCCCC)OC(=O)CCCCCCCC)N(C)CCCCO)CSCCCCCCC (centres unmarked) [lipid 24, 1,13-bis(Heptylthio)-7-((4-hydroxybutyl)(methyl)amino)tridecane-2,12-diyl dinonano-ate] | higher | higher | –
13 | CCCCCCCCCC(=O)OC(CCCCCC(CCCCCC(CSCCCCCC)OC(=O)CCCCCCCCC)N(C)CCCCO)CSCCCCCC (centres unmarked) [lipid 27, 1,15-bis(Hexylthio)-8-((4-hydroxybutyl)(methyl)amino)pentadecane-2,14-diyl bis-(decanoate)] | higher | higher | –
14 | CCCCCCCCC(=O)OC(CCCCCC(CCCCCC(CSC1CCCCC1)OC(=O)CCCCCCCC)OC(=O)CCCN(C)C)CSC1CCCCC1 (centres unmarked) [lipid 11, 1,15-bis(cyclohexylthio)-8-((4-(dimethylamino)butanoyl)oxy)pentadecane-2,14-diyl dinonanoate] | higher | – | –
15 | CCCCCCCCCC(=O)OC(CCCCCC(CCCCCC(CSC1CCCCC1)OC(=O)CCCCCCCCC)OC(=O)CCCN(C)C)CSC1CCCCC1 (centres unmarked) [lipid 10, 1,15-bis(cyclohexylthio)-8-((4-(dimethylamino)butanoyl)oxy)pentadecane-2,14-diyl bis(decanoate)] | higher | – | –
16 | CCCCCCCCC(=O)OC(CCCCCC(CCCCCC(CSC1CCCCC1)OC(=O)CCCCCCCC)N(C)CCCCO)CSC1CCCCC1 (centres unmarked) [lipid 32, 1,15-bis(Cyclohexylthio)-8-((4-hydroxybutyl)(methyl)amino)pentadecane-2,14-diyl dinonanoate] | higher | higher | –
